The target of one assay is T1, Somatostatin sst4 (Homo sapiens, UniProt P31391).
T1 construct: host or cells: CHO-K1
Kind of assay: Somatostatin sst4 radioligand binding assay. To be noted: for % inh / inhibition at 10 µM: Conc 10 μM (Conc not given in some rows). As to the method: (§1) Compounds of the present invention were assessed for their binding affinity to sst1, sst3, and sst4 receptors by biochemical and radioligand assay according to the following procedures. The assays were conducted by MDS Pharma Services—Taiwan Ltd., Pharmacology Laboratories, 158 Li-The Road, Peitou, Taipei, Taiwan 112, R.O.C.
The protocol for sst4 assay was adapted from Patel, Y. C. and Srikant, C. B. (1994) “Subtype selectivity of peptide analogs for all five cloned human somatostatin receptors (hsstr 1-5).” Endocrinology 135 (6): 2814-2817, 1994. The protocol were and can be conducted according to the following conditions.
(§2) IC50 values were determined by a non-linear, least squares regression analysis using Data Analysis Toolbox™ (MDL Information Systems, San Leandro, Calif., USA). Where inhibition constants (Ki) are presented, the Ki values were calculated using the equation of Cheng and Prusoff (Cheng, Y., Prusoff, W. H., Biochem. Pharmacol. 22:3099-3108, 1973) using the observed IC50 of the tested compound, the concentration of the radioligand employed in the assay, and the historical values for the Kd of the ligand (obtained experimentally at MDS Pharma Services). Where presented, the Hill coefficient (nH), defining the slope of the competitive binding curve, was calculated using Data Analysis Toolbox™. […] Where IC50, Ki and/or nH data are presented without Standard Error of the Mean (SEM), data are insufficient to be quantitative, and the values presented (Ki, IC50, nH) should be interpreted accordingly.

The target in another assay is T2, Somatostatin sst 3 (Homo sapiens, UniProt P32745).
T2 construct: host or cells: CHO-K1
Kind of assay: Somatostatin sst3 radioligand binding assay. To be noted: for % inh / inhibition at 10 µM: Conc 10 μM (Conc not given in some rows). Here is the method: as §1
The protocol for sst3 assay was adapted from Liapakis, G., Fitzpatrick, D., Hoeger, C., Rivier, J., Vandlen, R. and Reisine, T. (1996) “Identification of ligand binding determinants in the somatostatin receptor subtypes 1 and 2.”J. Biol. Chem. 271(24): 20331-20339, 1996; and Patel, Y. C. and Srikant, C. B. (1994) “Subtype selectivity of peptide analogs for all five cloned human somatostatin receptors (hsstr 1-5).” Endocrinology 135 (6): 2814-2817, 1994. The protocol were and can be conducted according to the following conditions.
as §2

The target in a further assay is T3, Somatostatin sst1 (Homo sapiens, UniProt P30872).
T3 construct: host or cells: CHO-K1
As to the kind of experiment: Somatostatin sst1 radioligand binding assay. To be noted: for % inh / inhibition at 10 µM: Conc 10 μM. Here is the method: as §1
The protocol for sstl assay was adapted from Liapakis, G., Fitzpatrick, D., Hoeger, C., Rivier, J., Vandlen, R. and Reisine, T. (1996) “Identification of ligand binding determinants in the somatostatin receptor subtypes 1 and 2.”J. Biol. Chem. 271(24): 20331-20339, 1996; and Patel, Y. C. and Srikant, C. B. (1994) “Subtype selectivity of peptide analogs for all five cloned human somatostatin receptors (hsstr 1-5).” Endocrinology 135 (6): 2814-2817, 1994. The protocol were and can be conducted according to the following conditions.
as §2

Another assay concerns the target T4, Sst5 (Cavia porcellus, UniProt H0W1F1).
T4 sequence (H0W1F1 1-365): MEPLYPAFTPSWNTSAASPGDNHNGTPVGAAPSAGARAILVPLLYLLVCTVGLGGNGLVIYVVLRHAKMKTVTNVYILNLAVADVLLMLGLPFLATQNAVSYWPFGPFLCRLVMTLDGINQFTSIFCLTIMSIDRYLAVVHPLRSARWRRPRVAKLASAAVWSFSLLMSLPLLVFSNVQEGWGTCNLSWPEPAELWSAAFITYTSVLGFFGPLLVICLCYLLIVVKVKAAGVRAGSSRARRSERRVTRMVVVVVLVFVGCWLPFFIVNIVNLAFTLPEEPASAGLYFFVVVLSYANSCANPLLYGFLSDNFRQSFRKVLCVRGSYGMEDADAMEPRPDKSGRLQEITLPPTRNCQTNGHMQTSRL
Kind of assay: Sst5 (functional) assay, Vas def gp. To be noted: Table 4, Conc 30 μM; for activation at 30 µM: read-out: % Ag.

Setting [1] is: Hill coefficient of competitive binding curve.

Data on 11 compounds can be found in US6872827B2, “Somatostatin analogue compounds” (Chembridge Research Laboratories, Inc., priority 2002, dated 2005).

Values joined by “and” are separate entries in the source; they are usually repeats but may differ in a detail not shown here. Equal entries are not always repeated. Where two headings read alike, the source gives them in different places.

T2 sequence (P32745 whole entry): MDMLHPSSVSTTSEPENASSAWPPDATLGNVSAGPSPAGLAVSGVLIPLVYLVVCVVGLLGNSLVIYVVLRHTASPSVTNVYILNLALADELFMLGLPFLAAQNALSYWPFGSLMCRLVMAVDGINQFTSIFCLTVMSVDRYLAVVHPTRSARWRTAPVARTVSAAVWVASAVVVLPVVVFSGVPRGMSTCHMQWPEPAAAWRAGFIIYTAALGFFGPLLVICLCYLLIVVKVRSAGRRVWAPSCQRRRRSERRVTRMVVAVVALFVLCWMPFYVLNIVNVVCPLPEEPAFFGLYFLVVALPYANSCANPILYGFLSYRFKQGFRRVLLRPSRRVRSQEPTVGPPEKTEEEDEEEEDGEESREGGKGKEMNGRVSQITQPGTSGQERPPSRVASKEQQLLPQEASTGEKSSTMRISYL
T3 sequence (P30872 whole entry): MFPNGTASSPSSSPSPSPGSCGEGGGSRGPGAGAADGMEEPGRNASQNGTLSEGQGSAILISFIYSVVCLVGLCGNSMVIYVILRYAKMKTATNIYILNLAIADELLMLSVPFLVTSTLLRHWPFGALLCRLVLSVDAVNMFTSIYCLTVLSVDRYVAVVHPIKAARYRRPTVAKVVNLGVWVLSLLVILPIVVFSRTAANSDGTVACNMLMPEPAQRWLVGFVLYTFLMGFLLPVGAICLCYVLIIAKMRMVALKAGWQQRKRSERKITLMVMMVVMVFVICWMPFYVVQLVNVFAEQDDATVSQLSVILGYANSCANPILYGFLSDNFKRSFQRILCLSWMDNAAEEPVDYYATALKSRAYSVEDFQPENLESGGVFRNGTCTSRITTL
T1 sequence (P31391 whole entry): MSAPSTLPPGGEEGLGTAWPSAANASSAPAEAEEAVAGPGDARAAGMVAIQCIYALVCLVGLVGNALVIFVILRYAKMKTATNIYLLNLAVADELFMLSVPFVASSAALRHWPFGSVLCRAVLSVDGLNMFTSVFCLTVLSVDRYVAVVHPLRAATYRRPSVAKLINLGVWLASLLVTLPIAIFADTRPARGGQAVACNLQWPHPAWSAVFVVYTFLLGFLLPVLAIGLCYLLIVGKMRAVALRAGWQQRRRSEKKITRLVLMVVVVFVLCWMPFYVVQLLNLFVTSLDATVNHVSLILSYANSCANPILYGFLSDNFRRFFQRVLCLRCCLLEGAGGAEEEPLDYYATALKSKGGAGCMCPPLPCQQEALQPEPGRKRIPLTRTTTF

On to “7-(4-methoxy-phenoxy)-3,4-dihydro-2H-quinoline-1-(4-aminobutyl-1-yl-)-4-spiro-5′-1′-methy-3′-[2-(1H-indol-3-yl-ethyl]-imidazoline-2′4′-dione [G]”, for which the nH worked out at 0.786 at Somatostatin sst4 (Table 4, human); 0.985 at Somatostatin sst 3 (Table 4, human); 0.67 on Somatostatin sst1 (Table 4, human). The “% inh” value on Somatostatin sst4 (Table 4, human) is 68%; on Somatostatin sst 3 (Table 4, human), 60%; on Somatostatin sst1 (Table 4, human) it was 64%.

As for “7-Phenoxy-3′-4′-dihydro-2H-quinoline 1-(methylpiperidine-4-yl)-4-spiro-5′-1′-(1H-indole-3yl-methyl)-3′-methyl-imidazoline-2′-4′-dione”, the nH on Somatostatin sst4 (Table 4, human) worked out at 1.37; at Somatostatin sst 3 (Table 4, human), 1.3; on Somatostatin sst1 (Table 4, human), 1.16. Moreover, the “% inh” value turned out to be 89% on Somatostatin sst4 (Table 4, human); 86% at Somatostatin sst 3 (Table 4, human); 89% on Somatostatin sst1 (Table 4, human).

Take `CN1C(=O)N(Cc2c[nH]c3ccccc23)C2(CCN(C(=O)CCCN)c3cc(Oc4ccccc4)ccc32)C1=O` (stereo not drawn) [C, 7-phenoxy-3,4-dihydro-2H-quinoline-1-(4-amino-butyl-1-one)-4-spiro-5′-1′-(1H-indol-3-ylmethyl)-3′-methyl-imidazoline-2′,4′-dione]: the “% inh” value on Somatostatin sst4 (Table 4, human) is on record as 32%; on Somatostatin sst 3 (Table 4, human), 25%; on Somatostatin sst1 (Table 4, human) it was 24%.

As for `CN1C(=O)N(Cc2c[nH]c3ccccc23)C(=O)C12CCN(C(=O)CCCN)c1cc(Oc3ccccc3)ccc12` (stereo not drawn) [Compound A, 7-phenoxy-3,4-dihydro-2H-quinoline-1-(4-amino-butanonyl)-4-spiro-5′-1′-methyl-3′-(1H-indol-3-ylmethyl)-imidazolidine-2′,4′-dione], the IC50 (as a rule, the concentration at which inhibition is half-maximal) at Somatostatin sst4 stood at 6 µM; at Somatostatin sst 3, 6.59 µM; at Somatostatin sst1, 6.39 µM. The Ki (usually a measure of affinity in units of concentration, obtained from inhibition or displacement) amounted to 5.27 µM on Somatostatin sst4 (Cheng-Prusoff from IC50), 5.85 µM at Somatostatin sst 3 (Cheng-Prusoff from IC50) and 6.07 µM on Somatostatin sst1 (Cheng-Prusoff from IC50). The nH at Somatostatin sst4 (setting [1]) is recorded as 0.504; at Somatostatin sst4 (Table 4, human), 0.504; at Somatostatin sst 3 (setting [1]), 0.564; on Somatostatin sst 3 (Table 4, human), 0.564; at Somatostatin sst1 (setting [1]) it was 0.433; at Somatostatin sst1 (Table 4, human) it was 0.433. Also, the inhibition at 10 µM worked out at 50% at Somatostatin sst4 (Table 4, human); 56% on Somatostatin sst 3 (Table 4, human); 54% at Somatostatin sst1 (Table 4, human). Moreover, the activation at 30 µM at Sst5 worked out at 61%.

With `CN1C(=O)N(Cc2c[nH]c3ccccc23)C2(CCN(CCCCN)c3cc(Oc4ccccc4)ccc32)C1=O` (stereo not drawn) [Compound B, 7-phenoxy-3,4-dihydro-2H-quinoline-1-(4-butylamine)-4-spiro-5′-1′-(1H-indol-3-ylmethyl)-3′-methyl-imidazolidine-2′,4′-dione], the inhibition at 10 µM is 39% at Somatostatin sst4 (Table 4, human); 60% at Somatostatin sst 3 (Table 4, human); 57% at Somatostatin sst1 (Table 4, human). Moreover, the IC50 at Somatostatin sst 3 came out at 5.84 µM; on Somatostatin sst1 it was 3.25 µM. Also, the results for the Ki at Somatostatin sst 3 (Cheng-Prusoff from IC50) and on Somatostatin sst1 (Cheng-Prusoff from IC50) were 5.18 µM and 3.09 µM, respectively. Also, the nH is reported as 0.722 on Somatostatin sst 3 (setting [1]); 0.722 at Somatostatin sst 3 (Table 4, human); 0.62 on Somatostatin sst1 (setting [1]); 0.62 at Somatostatin sst1 (Table 4, human).

At Somatostatin sst4 (Table 4, human), `Cc1ccc(Oc2ccc3c(c2)N(CCCCN)CCC32C(=O)N(C)C(=O)N2Cc2c[nH]c3ccccc23)cc1` (stereo not drawn) [D, 7-Tolyloxy-3′-4′-dihydro-2H-quinoline-1-(aminobutan-1yl)-4-spiro-5′-1′-(1H-indol-3-yl-methyl)-3′methyl-imidazolidine-2′4′-dione] registered an IC50 of 5.13 µM, a Ki of 4.51 µM, a nH of 1.15 and an inhibition at 10 µM of 68%. On Somatostatin sst 3 (Table 4, human), this compound had an IC50 of 7.05 µM, a Ki of 6.26 µM, a nH of 2.34 and an inhibition at 10 µM of 68%. Moreover, at Somatostatin sst1 (Table 4, human), the IC50 is 0.807 µM, the Ki was 0.767 µM, the nH worked out at 0.654 and the inhibition at 10 µM was found to be 84%.

Take `CN1C(=O)N(CCc2c[nH]c3ccccc23)C(=O)C12CCN(CCCCN)c1cc(O)ccc12` (stereo not drawn) [F]: on Somatostatin sst1 (Table 4, human), the IC50 came out at 1.32 µM, the Ki came out at 1.25 µM, the nH is recorded as 0.992 and the inhibition at 10 µM was found to be 87%.

On Somatostatin sst4 (Table 4, human), `Cc1ccc(Oc2ccc3c(c2)N(CCCCN)CCC32C(=O)N(CCc3c[nH]c4ccccc34)C(=O)N2C)cc1` (stereo not drawn) [H, 7-Tolyloxy-3′-4′-dihydro-2H-quinoline-1-(4-amino-butan-1yl)-4-spiro-5′-1′-methyl-3′[2-(1H-indol-3-yl)-ethyl]-imidazolidine-2′4′-dione] returned an IC50 of 0.649 µM, a Ki of 0.57 µM, a nH of 1 and an inhibition at 10 µM of 68%. On Somatostatin sst 3 (Table 4, human), this compound yielded an IC50 of 7.58 µM, a Ki of 6.73 µM, a nH of 0.922 and an inhibition at 10 µM of 57%. On Somatostatin sst1 (Table 4, human), this compound came in with an IC50 of 1.24 µM, a Ki of 1.18 µM, a nH of 1.38 and an inhibition at 10 µM of 66%.

On Somatostatin sst4 (Table 4, human), `Cc1ccc(Oc2ccc3c(c2)N(CCCCN)CCC32C(=O)N(CCc3c[nH]c4ccccc34)C(=O)N2C)cc1C` (stereo not drawn) [I] had an IC50 of 2.62 µM, an inhibitory constant (Ki) of 2.3 µM, a nH of 1.16 and an inhibition at 10 µM of 71%. On Somatostatin sst 3 (Table 4, human), the IC50 is 7.96 µM, affinity was put at a Ki of 7.06 µM, the nH was determined as 0.977 and the inhibition at 10 µM came out at 56%. At Somatostatin sst1 (Table 4, human), this compound returned an IC50 of 3.38 µM, a Ki of 3.21 µM, a nH of 0.598 and an inhibition at 10 µM of 66%.

Take `CN1C(=O)N(CCc2c[nH]c3ccccc23)C(=O)C12CCN(CCCCN)c1cc(Oc3ccc4c(c3)OCO4)ccc12` (stereo not drawn) [J, 7-(Benzo-[1,3]-dioxol-5-yloxy)-3′-4′-dihydro-2H-quinoline-1-(4-amino-butan-1yl)-4-spiro-5′-1′-methyl-3′[2-(-1H-indol-3-yl)-ethyl]-imidazolidine-2′4′-dione]: at Somatostatin sst4 (Table 4, human), the IC50 came to 0.754 µM, the Ki was determined as 0.663 µM, the nH came to 1.25 and the inhibition at 10 µM was determined as 72%. At Somatostatin sst 3 (Table 4, human), this compound displayed an IC50 of 3.71 µM, a Ki of 3.29 µM, a nH of 0.915 and an inhibition at 10 µM of 72%. Besides, at Somatostatin sst1 (Table 4, human), the IC50 was determined as 0.699 µM, the Ki turned out to be 0.664 µM, the nH is listed as 1.28 and the inhibition at 10 µM turned out to be 69%. At Sst5, the activation at 30 µM was -11%. The inhibition at 30 µM at Sst5 (guinea pig, read-out: % Ant) was determined as 1%.

As to Somatostatin-14 [reference compound], the nH was 1.02 at Somatostatin sst4 (setting [1]); 0.73 and 0.775 on Somatostatin sst 3 (setting [1]); 0.628 and 0.747 on Somatostatin sst1 (setting [1]).
